US7265124B2, “Cristalline and amorphous form of a triazolo (4,5-D) pyridimine compound” (AstraZeneca AB, priority 2000, dated 2007)

Legend:
Details in all cases: qualitative statement, no test described
[1] = bioavailability (stated in words only); assay type: in vivo
[2] = target: P2T (P2YADP or P2TAC) receptor (Homo sapiens, UniProt Q9H244); assay: P2T receptor antagonism (potency stated in words only)
[3] = metabolic stability (stated in words only); assay type: in vitro ADME

P2T (P2YADP or P2TAC) receptor, sequence (Q9H244 whole entry): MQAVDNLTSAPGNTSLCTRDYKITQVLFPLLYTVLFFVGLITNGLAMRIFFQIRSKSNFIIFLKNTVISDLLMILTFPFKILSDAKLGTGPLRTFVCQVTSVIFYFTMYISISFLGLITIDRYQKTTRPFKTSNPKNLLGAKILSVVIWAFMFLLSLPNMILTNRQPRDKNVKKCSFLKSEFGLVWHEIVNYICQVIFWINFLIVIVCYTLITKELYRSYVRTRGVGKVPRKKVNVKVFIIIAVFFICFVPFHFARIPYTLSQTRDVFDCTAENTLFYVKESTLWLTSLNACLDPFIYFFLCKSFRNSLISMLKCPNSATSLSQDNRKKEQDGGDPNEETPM

CCCSc1nc(N[C@@H]2C[C@H]2c2ccc(F)c(F)c2)c2nnn([C@@H]3C[C@H](OCCO)[C@@H](O)[C@H]3O)c2n1 (relative stereo) [compound of formula (I), {1S-[1α, 2α, 3β(1S*,2R*),5β]}-3-(7-{[2-3,4-difluorophenyl)cyclopropyl]amino}-5-(propylthio)-3H-1,2,3-triazolo[4,5-d]pyrimidin-3-yl)-5-(2-hydroxyethoxy)cyclopentane-1,2-diol]
bioavailability [1]: surprisingly high
potency as a P2T (P2YADP or P2TAC) antagonist [2]: high potency
metabolic stability [3]: surprisingly high
